Data from paper PMC7997578, “Design, Synthesis, Dynamic Docking, Biochemical Characterization, and in Vivo Pharmacokinetics Studies of Novel Topoisomerase II Poisons with Promising Antiproliferative Activity” (Journal of Medicinal Chemistry, 2020).

Assay: plasma protein binding (rapid equilibrium dialysis), mouse
Assay type: in vitro ADME
Details: pH 7.4
Method: 3. Aqueous t herm odynam ic solu bili ty
The thermodynamic solubility of 3f was determined by addition of Phosphate Buffered Saline (PBS) at pH 7. 4 to an exces s of solid compound.
The assay was performed by incubation of an aliquot of 2. 5mg of test compound in 500µL of PBS at pH 7. 4. The suspension was shaken at 300 RPM for 24h at 25°C. At the end of the incubation period, the saturated solution was filtered and analyzed by UPLC/MS for the quantification of dissolved compound (in µM) by UV at a specific wavelength ( λmax of the test compound). The analyses were performed on a Waters ACQUITY UPLC/MS SQD system equipped with an ESI ion source. The analyses were run on an ACQUITY UPLC BEH C 18 column (50x2. 1mmI D, particle size 1. 7µm) with a VanGuard BEH C 18 pr e-column (5x2. 1mmID, particle size 1. 7µm), using H 2O + 0. 1% HCOOH (A) and CH 3CN + 0. 1% HCOOH (B) as mobile phase.
4. Plasm a Protei n Bindi ng
The assay was conducted in triplicate in human and mouse plasma. An appropriate volume of plasma was spiked with a known amount of 10mM DMSO stock solution of the test compound, thus reaching the incubation concentrations of 0. 5, 1 and 5 µM. […] At this point, the supernatants were ready for injections in the UPLC -MS/ MS system. […] Plasma protein binding was calculated applying appropriate corrections to compensate for dilutions during sampling.

## O=C(Nc1cccc(OC(F)(F)F)c1)c1c(O)n(-c2ccccc2)c(=S)n(-c2ccccc2)c1=O [3f, 6-Hydroxy-4-oxo-1,3-diphenyl-2-thioxo-N-(3-(trifluoromethoxy)phenyl)-1,2,3,4-tetrahydropyrimidine-5-carboxamide]
  fraction unbound at 3 h: < 0.01
